Results as given in US12281080B2, “Quinoline-based compounds and methods of inhibiting CDK8/19” (University of South Carolina, priority 2018, dated 2025).

How the values were obtained:
[1] = target: ABL1(F317I)-phosphorylated (Homo sapiens (Human), UniProt P00519, F317I); assay: KINOMEscan scanMAX; format: binding; conditions: 2000 nM; read-out: Percent Control
[2] = target: MYLK (Homo sapiens (Human), UniProt Q15746); assay: KINOMEscan scanMAX; format: binding; conditions: 2000 nM; read-out: Percent Control
[3] = target: RPS6KA4(Kin.Dom.1-N-terminal) (Homo sapiens (Human), UniProt O75676); assay: KINOMEscan scanMAX; format: binding; conditions: 2000 nM; read-out: Percent Control
[4] = target: CDK9 (Homo sapiens (Human), UniProt P50750); assay: KINOMEscan scanMAX; format: binding; conditions: 2000 nM; read-out: Percent Control
[5] = target: KIT(L576P) (Homo sapiens (Human), UniProt P10721, L576P); assay: KINOMEscan scanMAX; format: binding; conditions: 2000 nM; read-out: Percent Control
[6] = target: JAK3(JH1domain-catalytic) (Homo sapiens (Human), UniProt P52333); assay: KINOMEscan scanMAX; format: binding; conditions: 2000 nM; read-out: Percent Control
[7] = target: JNK2 (MAPK9) (Homo sapiens (Human), UniProt P45984); assay: KINOMEscan scanMAX; format: binding; conditions: 2000 nM; read-out: Percent Control
[8] = target: ADCK4 (Homo sapiens (Human), UniProt Q96D53); assay: KINOMEscan scanMAX; format: binding; conditions: 2000 nM; read-out: Percent Control
[9] = target: MEK2 (MAP2K2) (Homo sapiens (Human), UniProt P36507); assay: KINOMEscan scanMAX; format: binding; conditions: 2000 nM; read-out: Percent Control
[10] = target: MYO3B (Homo sapiens (Human), UniProt Q8WXR4); assay: DiscoverX Kd assay; conditions: average from duplicate measurements
[11] = target: PRKCQ (Homo sapiens (Human), UniProt Q04759); assay: KINOMEscan scanMAX; format: binding; conditions: 2000 nM; read-out: Percent Control
[12] = target: SGK2 (Homo sapiens (Human), UniProt Q9HBY8); assay: KINOMEscan scanMAX; format: binding; conditions: 2000 nM; read-out: Percent Control
[13] = target: FAK (PTK2) (Homo sapiens (Human), UniProt Q05397); assay: KINOMEscan scanMAX; format: binding; conditions: 2000 nM; read-out: Percent Control
[14] = target: RIPK5 (DSTYK) (Homo sapiens (Human), UniProt Q6XUX3); assay: KINOMEscan scanMAX; format: binding; conditions: 2000 nM; read-out: Percent Control
[15] = target: CSNK1A1 (Homo sapiens (Human), UniProt P48729); assay: KINOMEscan scanMAX; format: binding; conditions: 2000 nM; read-out: Percent Control
[16] = target: ZAP70 (Homo sapiens (Human), UniProt P43403); assay: KINOMEscan scanMAX; format: binding; conditions: 2000 nM; read-out: Percent Control
[17] = target: CSF1R-autoinhibited (Homo sapiens (Human), UniProt P07333); assay: KINOMEscan scanMAX; format: binding; conditions: 2000 nM; read-out: Percent Control
[18] = target: EGFR(L747-S752del, P753S) (Homo sapiens (Human), UniProt P00533, DEL747-752/P753S); assay: KINOMEscan scanMAX; format: binding; conditions: 2000 nM; read-out: Percent Control
[19] = target: PKAC-alpha (PRKACA) (Homo sapiens (Human), UniProt P17612); assay: KINOMEscan scanMAX; format: binding; conditions: 2000 nM; read-out: Percent Control
[20] = target: STK16 (Homo sapiens (Human), UniProt O75716); assay: KINOMEscan scanMAX; format: binding; conditions: 2000 nM; read-out: Percent Control
[21] = target: HIPK2 (Homo sapiens (Human), UniProt Q9H2X6); assay: KINOMEscan scanMAX; format: binding; conditions: 2000 nM; read-out: Percent Control
[22] = target: MKNK1 (Homo sapiens (Human), UniProt Q9BUB5); assay: KINOMEscan scanMAX; format: binding; conditions: 2000 nM; read-out: Percent Control
[23] = target: CLK1 (Homo sapiens (Human), UniProt P49759); assay: KINOMEscan scanMAX; format: binding; conditions: 2000 nM; read-out: Percent Control
[24] = target: TYK2(JH2domain-pseudokinase) (Homo sapiens (Human), UniProt P29597); assay: KINOMEscan scanMAX; format: binding; conditions: 2000 nM; read-out: Percent Control
[25] = target: RSK4(Kin.Dom.2-C-terminal) (RPS6KA6) (Homo sapiens (Human), UniProt Q9UK32); assay: KINOMEscan scanMAX; format: binding; conditions: 2000 nM; read-out: Percent Control
[26] = target: LOK (STK10) (Homo sapiens (Human), UniProt O94804); assay: KINOMEscan scanMAX; format: binding; conditions: 2000 nM; read-out: Percent Control
[27] = target: ITK (Homo sapiens (Human), UniProt Q08881); assay: KINOMEscan scanMAX; format: binding; conditions: 2000 nM; read-out: Percent Control
[28] = target: ARK5 (NUAK1) (Homo sapiens (Human), UniProt O60285); assay: KINOMEscan scanMAX; format: binding; conditions: 2000 nM; read-out: Percent Control
[29] = target: TGFBR1 (Homo sapiens (Human), UniProt P36897); assay: KINOMEscan scanMAX; format: binding; conditions: 2000 nM; read-out: Percent Control
[30] = target: SIK (SIK1) (Homo sapiens (Human), UniProt P57059); assay: KINOMEscan scanMAX; format: binding; conditions: 2000 nM; read-out: Percent Control
[31] = target: IKK-epsilon (IKBKE) (Homo sapiens (Human), UniProt Q14164); assay: KINOMEscan scanMAX; format: binding; conditions: 2000 nM; read-out: Percent Control
[32] = target: ACVRL1 (Homo sapiens (Human), UniProt P37023); assay: KINOMEscan scanMAX; format: binding; conditions: 2000 nM; read-out: Percent Control
[33] = target: CIT (Homo sapiens (Human), UniProt O14578); assay: KINOMEscan scanMAX; format: binding; conditions: 2000 nM; read-out: Percent Control
[34] = target: EGFR(L747-T751del, Sins) (Homo sapiens (Human), UniProt P00533, DEL747-751/INS746S); assay: KINOMEscan scanMAX; format: binding; conditions: 2000 nM; read-out: Percent Control
[35] = target: LCK (Homo sapiens (Human), UniProt P06239); assay: KINOMEscan scanMAX; format: binding; conditions: 2000 nM; read-out: Percent Control
[36] = target: CSNK1D (Homo sapiens (Human), UniProt P48730); assay: KINOMEscan scanMAX; format: binding; conditions: 2000 nM; read-out: Percent Control
[37] = target: CAMK1B (PNCK) (Homo sapiens (Human), UniProt Q6P2M8); assay: KINOMEscan scanMAX; format: binding; conditions: 2000 nM; read-out: Percent Control
[38] = target: PIP5K2B (PIP4K2B) (Homo sapiens (Human), UniProt P78356); assay: KINOMEscan scanMAX; format: binding; conditions: 2000 nM; read-out: Percent Control

CSNK1D, sequence (P48730 whole entry): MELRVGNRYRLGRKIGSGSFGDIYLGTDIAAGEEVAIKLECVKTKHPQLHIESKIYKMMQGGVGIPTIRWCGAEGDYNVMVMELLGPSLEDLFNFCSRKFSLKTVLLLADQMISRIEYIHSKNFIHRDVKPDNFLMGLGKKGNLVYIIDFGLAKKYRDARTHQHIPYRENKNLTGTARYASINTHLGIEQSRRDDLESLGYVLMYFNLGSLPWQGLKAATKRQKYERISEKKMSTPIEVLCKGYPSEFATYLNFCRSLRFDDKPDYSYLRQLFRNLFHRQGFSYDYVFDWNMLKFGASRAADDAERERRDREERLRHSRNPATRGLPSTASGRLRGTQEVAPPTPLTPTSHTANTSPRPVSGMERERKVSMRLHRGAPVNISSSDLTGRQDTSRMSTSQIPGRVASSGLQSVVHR
SGK2, sequence (Q9HBY8 whole entry): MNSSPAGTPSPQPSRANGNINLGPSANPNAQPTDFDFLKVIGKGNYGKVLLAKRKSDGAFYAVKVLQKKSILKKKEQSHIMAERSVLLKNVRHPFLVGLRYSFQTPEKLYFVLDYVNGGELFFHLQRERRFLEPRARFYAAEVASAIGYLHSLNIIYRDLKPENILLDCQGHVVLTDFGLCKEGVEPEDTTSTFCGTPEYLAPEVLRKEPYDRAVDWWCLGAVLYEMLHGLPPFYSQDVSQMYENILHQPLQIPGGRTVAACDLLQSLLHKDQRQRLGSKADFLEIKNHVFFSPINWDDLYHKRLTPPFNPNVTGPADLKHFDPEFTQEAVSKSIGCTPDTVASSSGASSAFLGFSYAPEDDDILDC
TGFBR1, sequence (P36897 34-503): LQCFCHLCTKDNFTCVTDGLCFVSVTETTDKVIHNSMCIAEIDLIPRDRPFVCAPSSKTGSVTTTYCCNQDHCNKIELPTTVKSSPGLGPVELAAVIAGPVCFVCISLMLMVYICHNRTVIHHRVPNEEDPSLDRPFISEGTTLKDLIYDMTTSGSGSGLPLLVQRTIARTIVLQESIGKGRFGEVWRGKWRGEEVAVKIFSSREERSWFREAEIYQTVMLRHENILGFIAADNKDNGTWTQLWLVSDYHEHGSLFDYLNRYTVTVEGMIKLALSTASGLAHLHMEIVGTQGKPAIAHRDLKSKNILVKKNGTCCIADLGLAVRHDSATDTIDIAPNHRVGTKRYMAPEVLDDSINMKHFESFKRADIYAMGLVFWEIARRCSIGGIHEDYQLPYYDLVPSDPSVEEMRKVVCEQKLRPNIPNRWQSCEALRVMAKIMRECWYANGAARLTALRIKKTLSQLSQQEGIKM
CDK9, sequence (P50750 whole entry): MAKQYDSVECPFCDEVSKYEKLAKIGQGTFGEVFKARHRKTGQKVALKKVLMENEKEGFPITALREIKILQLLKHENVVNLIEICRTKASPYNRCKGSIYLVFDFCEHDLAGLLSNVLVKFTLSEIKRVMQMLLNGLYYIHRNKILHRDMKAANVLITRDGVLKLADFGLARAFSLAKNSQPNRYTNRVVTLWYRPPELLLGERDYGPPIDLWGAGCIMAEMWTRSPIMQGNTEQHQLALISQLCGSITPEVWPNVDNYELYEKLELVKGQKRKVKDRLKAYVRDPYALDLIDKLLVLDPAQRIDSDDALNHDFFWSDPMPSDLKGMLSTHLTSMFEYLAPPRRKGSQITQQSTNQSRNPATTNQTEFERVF
CIT, sequence (O14578 whole entry): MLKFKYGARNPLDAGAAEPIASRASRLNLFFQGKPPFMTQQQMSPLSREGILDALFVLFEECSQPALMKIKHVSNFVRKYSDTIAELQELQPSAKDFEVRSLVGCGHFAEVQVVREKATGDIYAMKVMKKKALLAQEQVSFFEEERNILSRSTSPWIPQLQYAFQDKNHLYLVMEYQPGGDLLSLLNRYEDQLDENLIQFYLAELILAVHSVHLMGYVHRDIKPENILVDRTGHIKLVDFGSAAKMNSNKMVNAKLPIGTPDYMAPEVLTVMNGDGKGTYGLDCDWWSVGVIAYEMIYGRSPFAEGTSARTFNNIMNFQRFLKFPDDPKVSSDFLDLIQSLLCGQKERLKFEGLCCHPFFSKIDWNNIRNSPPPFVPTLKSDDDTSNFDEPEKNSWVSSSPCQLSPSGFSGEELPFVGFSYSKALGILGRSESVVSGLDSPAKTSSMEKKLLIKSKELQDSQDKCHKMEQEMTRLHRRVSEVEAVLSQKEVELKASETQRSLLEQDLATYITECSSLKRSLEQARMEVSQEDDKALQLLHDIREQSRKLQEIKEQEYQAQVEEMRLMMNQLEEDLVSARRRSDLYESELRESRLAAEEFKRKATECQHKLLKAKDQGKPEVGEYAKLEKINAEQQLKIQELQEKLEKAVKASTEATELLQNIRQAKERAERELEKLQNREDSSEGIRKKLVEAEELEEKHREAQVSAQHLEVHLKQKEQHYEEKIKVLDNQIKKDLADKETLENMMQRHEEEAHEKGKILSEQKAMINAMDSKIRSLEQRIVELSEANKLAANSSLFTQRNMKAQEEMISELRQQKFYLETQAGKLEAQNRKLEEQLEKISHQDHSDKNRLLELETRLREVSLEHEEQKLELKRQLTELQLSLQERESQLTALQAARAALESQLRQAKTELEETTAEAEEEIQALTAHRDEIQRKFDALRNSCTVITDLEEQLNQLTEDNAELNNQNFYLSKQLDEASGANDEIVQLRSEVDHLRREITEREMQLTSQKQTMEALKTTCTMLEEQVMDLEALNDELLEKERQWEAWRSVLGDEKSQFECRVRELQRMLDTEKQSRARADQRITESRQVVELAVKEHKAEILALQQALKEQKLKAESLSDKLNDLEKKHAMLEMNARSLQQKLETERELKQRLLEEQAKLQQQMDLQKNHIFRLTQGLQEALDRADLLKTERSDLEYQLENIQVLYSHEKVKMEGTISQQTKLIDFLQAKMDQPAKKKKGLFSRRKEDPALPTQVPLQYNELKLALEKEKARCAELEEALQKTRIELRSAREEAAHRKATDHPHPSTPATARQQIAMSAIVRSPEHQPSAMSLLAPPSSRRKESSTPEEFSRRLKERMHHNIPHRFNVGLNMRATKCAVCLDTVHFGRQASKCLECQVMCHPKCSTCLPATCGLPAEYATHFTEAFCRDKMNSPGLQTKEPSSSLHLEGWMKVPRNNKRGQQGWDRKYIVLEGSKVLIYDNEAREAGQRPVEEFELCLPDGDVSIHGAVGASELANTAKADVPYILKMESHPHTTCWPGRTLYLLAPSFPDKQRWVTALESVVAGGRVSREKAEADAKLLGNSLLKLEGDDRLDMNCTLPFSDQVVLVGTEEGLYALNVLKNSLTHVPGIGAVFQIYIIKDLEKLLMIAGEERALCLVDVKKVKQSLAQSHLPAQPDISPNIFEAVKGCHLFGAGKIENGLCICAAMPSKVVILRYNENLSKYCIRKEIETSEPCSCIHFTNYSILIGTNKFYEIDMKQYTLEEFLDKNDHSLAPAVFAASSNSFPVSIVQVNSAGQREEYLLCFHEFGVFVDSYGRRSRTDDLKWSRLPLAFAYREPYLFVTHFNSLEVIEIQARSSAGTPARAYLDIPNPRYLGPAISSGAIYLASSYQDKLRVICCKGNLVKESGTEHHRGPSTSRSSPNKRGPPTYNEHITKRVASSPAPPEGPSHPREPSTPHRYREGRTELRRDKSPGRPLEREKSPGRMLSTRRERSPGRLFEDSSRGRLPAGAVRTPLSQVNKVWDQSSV
RPS6KA4(Kin.Dom.1-N-terminal), sequence (O75676 33-301): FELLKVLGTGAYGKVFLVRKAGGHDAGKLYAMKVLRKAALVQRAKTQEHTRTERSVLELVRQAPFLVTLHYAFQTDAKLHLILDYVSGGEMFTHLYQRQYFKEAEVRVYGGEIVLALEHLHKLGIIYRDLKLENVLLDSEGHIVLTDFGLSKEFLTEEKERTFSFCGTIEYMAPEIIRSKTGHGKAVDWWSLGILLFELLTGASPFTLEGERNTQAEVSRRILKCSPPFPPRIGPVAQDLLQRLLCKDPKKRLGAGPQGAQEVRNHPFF
ABL1(F317I)-phosphorylated, sequence (P00519 whole entry F317I): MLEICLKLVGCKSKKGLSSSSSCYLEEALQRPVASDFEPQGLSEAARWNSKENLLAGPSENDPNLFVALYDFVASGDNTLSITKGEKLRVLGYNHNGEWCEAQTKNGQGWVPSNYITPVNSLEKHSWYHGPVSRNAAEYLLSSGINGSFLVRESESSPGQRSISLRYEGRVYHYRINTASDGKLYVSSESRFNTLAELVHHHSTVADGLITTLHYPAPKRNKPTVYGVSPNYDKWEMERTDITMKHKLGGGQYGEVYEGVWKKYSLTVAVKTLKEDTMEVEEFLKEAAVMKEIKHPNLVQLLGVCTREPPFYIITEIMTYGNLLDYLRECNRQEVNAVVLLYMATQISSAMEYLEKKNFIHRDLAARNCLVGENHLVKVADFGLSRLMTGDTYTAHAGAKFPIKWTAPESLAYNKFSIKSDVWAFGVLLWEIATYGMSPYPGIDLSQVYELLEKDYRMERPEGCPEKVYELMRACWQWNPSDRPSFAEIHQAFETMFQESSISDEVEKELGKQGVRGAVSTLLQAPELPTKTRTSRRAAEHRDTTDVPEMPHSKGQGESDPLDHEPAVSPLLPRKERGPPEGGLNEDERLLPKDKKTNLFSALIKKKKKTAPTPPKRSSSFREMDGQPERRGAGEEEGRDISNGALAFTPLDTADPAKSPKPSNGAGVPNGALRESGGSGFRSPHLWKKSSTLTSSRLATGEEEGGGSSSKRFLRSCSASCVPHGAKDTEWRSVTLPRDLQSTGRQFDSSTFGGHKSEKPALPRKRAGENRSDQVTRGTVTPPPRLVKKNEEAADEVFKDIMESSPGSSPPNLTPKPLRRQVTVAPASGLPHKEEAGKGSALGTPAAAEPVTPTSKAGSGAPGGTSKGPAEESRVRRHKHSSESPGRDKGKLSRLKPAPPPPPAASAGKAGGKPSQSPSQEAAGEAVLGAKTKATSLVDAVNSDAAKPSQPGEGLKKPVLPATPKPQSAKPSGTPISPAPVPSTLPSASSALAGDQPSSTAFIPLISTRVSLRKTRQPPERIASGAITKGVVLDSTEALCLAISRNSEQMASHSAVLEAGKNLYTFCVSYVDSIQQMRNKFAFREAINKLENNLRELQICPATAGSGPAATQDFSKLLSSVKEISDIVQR

With `CN1CCN(C(=O)c2ccc3cc(CCNc4ccnc5ccc(C#N)cc45)ccc3c2)CC1` [compound 6148, 4-((2-(6-(4-methylpiperazine-1-carbonyl)naphthalen-2-yl)ethyl)amino)quinoline-6-carbonitrile] as the compound, how does the remaining binding at 2 µM [1] read?
Its remaining binding at 2 µM is 89%.

What about the remaining binding at 2 µM [2] of the same compound?
The remaining binding at 2 µM was 83%.

What about the remaining binding at 2 µM [3] of the same compound?
Its remaining binding at 2 µM is 100%.

And the remaining binding at 2 µM [4]?
Its remaining binding at 2 µM is 97%.

And the remaining binding at 2 µM [5]?
Its remaining binding at 2 µM is 100%.

And the remaining binding at 2 µM [6]?
Its remaining binding at 2 µM is 65%.

What about the remaining binding at 2 µM [7] of the same compound?
The remaining binding at 2 µM was 67%.

And the remaining binding at 2 µM [8]?
Its remaining binding at 2 µM is 97%.

What about the remaining binding at 2 µM [9] of the same compound?
Its remaining binding at 2 µM is 64%.

And the Kd [10]?
Its Kd is greater than 30 µM.

What about the remaining binding at 2 µM [11] of the same compound?
The remaining binding at 2 µM was 100%.

What about the remaining binding at 2 µM [12] of the same compound?
The remaining binding at 2 µM was 61%.

And the remaining binding at 2 µM [13]?
Its remaining binding at 2 µM is 89%.

And the remaining binding at 2 µM [14]?
The remaining binding at 2 µM was 69%.

And the remaining binding at 2 µM [15]?
The remaining binding at 2 µM was 76%.

And the remaining binding at 2 µM [16]?
The remaining binding at 2 µM was 81%.

And the remaining binding at 2 µM [17]?
The remaining binding at 2 µM was 91%.

And the remaining binding at 2 µM [18]?
Its remaining binding at 2 µM is 98%.

And the remaining binding at 2 µM [19]?
Its remaining binding at 2 µM is 93%.

And the remaining binding at 2 µM [20]?
Its remaining binding at 2 µM is 71%.

What about the remaining binding at 2 µM [21] of the same compound?
The remaining binding at 2 µM was 67%.

What about the remaining binding at 2 µM [22] of the same compound?
The remaining binding at 2 µM was 72%.

What about the remaining binding at 2 µM [23] of the same compound?
The remaining binding at 2 µM was 60%.

What about the remaining binding at 2 µM [24] of the same compound?
The remaining binding at 2 µM was 63%.

And the remaining binding at 2 µM [25]?
The remaining binding at 2 µM was 96%.

What about the remaining binding at 2 µM [26] of the same compound?
Its remaining binding at 2 µM is 94%.

What about the remaining binding at 2 µM [27] of the same compound?
The remaining binding at 2 µM was 93%.

What about the remaining binding at 2 µM [28] of the same compound?
Its remaining binding at 2 µM is 89%.

What about the remaining binding at 2 µM [29] of the same compound?
The remaining binding at 2 µM was 100%.

And the remaining binding at 2 µM [30]?
The remaining binding at 2 µM was 91%.

What about the remaining binding at 2 µM [31] of the same compound?
Its remaining binding at 2 µM is 91%.

And the remaining binding at 2 µM [32]?
Its remaining binding at 2 µM is 93%.

And the remaining binding at 2 µM [33]?
Its remaining binding at 2 µM is 48%.

And the remaining binding at 2 µM [34]?
Its remaining binding at 2 µM is 74%.

What about the remaining binding at 2 µM [35] of the same compound?
The remaining binding at 2 µM was 92%.

And the remaining binding at 2 µM [36]?
The remaining binding at 2 µM was 87%.

And the remaining binding at 2 µM [37]?
The remaining binding at 2 µM was 92%.

And the remaining binding at 2 µM [38]?
The remaining binding at 2 µM was 85%.
